According to US9926294B2, “Pesticidally active heterocyclic derivatives with sulphur containing substituents” (Syngenta Participations AG, priority 2014, dated 2018):

What was measured:
Format in all cases: in vivo
[1] = test system: Bemisia tabaci (cotton white fly); assay: Example B9: Bemisia tabaci adulticide contact activity, preventative; conditions: foliar, 168 h, adult white flies on sprayed cotton leaf discs, 7 DAT, read-out: activity (mortality, special effects)
Procedure: Example B9: Activity Against Bemisia tabaci (Cotton White Fly)
(Adulticide Contact Activity, Preventative), Adult
(§1) Cotton leaf discs were placed on agar in a 24-well microtiter plate and sprayed with test solutions. After drying, the leaf discs were infested with adult white flies. After an incubation period of 7 DAT, samples were checked for mortality and special effects (e.g. phytotoxicity).

[2] = test system: Diabrotica balteata (corn root worm); assay: Example B4: Diabrotica balteata larvae L2 on maize sprouts, feeding/contact, preventative; conditions: 120 h, L2 larvae on sprayed maize sprouts, 5 days incubation, read-out: activity (larval mortality, growth regulation)
Procedure: Example B4: Activity Against Diabrotica Balteata (Corn Root Worm)
(Larvae L2 on Maize Sprouts, Feeding/Contact, Preventative)
Maize sprouts, placed on an agar layer in 24 well micro titer plates were treated with test solutions by spraying. After drying, the MTPs were infested with L2 larvae (6-10 per well). After an incubation period of 5 days, samples were checked for larval mortality and growth regulation.

[3] = test system: Thrips tabaci (onion thrips); assay: Example B8: Thrips tabaci mixed population, feeding/residual contact, preventive; conditions: foliar, 168 h, mixed population on sprayed sunflower leaf discs, 7 days incubation, read-out: activity (mortality, special effects)
Procedure: Example B8: Activity Against Thrips tabaci (Onion Thrips)
(Mixed Population, Feeding/Residual Contact Activity, Preventive)
as §1, with “Sunflower” for “Cotton”, “a thrips population of mixed ages.” for “adult white flies.”, “days,” for “DAT,”

[4] = test system: Myzus persicae (green peach aphid); assay: Example B5: Myzus persicae feeding/residual contact, preventive, mixed population (sunflower leaf discs); conditions: foliar, 144 h, mixed population on sprayed sunflower leaf discs, 6 DAT, read-out: activity (mortality, special effects)
Procedure: Example B5: Activity Against Myzus persicae (Green Peach Aphid)
(Feeding/Residual Contact Activity, Preventive), Mixed Population
(§2) Sunflower leaf discs were placed on agar in a 24-well microtiter plate and sprayed with test solutions. After drying, the leaf discs were infested with an aphid population of mixed ages. After an incubation period of 6 DAT, samples were checked for mortality and special effects (e.g. phytotoxicity).

[5] = test system: Plutella xylostella (diamond back moth); assay: Example B3: Plutella xylostella larvicide, feeding/residual contact, preventive (artificial diet); conditions: 120 h, L2 larvae on artificial diet, 5 days incubation, read-out: activity (larval mortality, antifeedant, growth regulation)
Procedure: Example B3: Activity Against Plutella xylostella (Diamond Back Moth)
(Larvicide, Feeding/Residual Contact Activity, Preventive)
24-well microtiter plate (MTP) with artificial diet was treated with test solutions by pipetting. After drying, the MTPs were infested with L2 larvae (10-15 per well). After an incubation period of 5 days, samples were checked for larval mortality, antifeedant and growth regulation.

[6] = test system: Spodoptera littoralis (Egyptian cotton leaf worm); assay: Example B1: Spodoptera littoralis larvicide, feeding/residual contact, preventive (cotton leaf discs); conditions: foliar, 72 h, L1 larvae on sprayed cotton leaf discs, 3 days after treatment, read-out: activity (mortality, repellent effect, feeding behaviour, growth regulation)
From the text: Example B1: Activity Against Spodoptera littoralis (Egyptian Cotton Leaf Worm)
Larvicide, Feeding/Residual Contact Activity, Preventive
Cotton leaf discs were placed on agar in a 24-well microtiter plate and sprayed with test solutions.
After drying, the leaf discs were infested with 5 L1 larvae. The samples were checked for mortality, repellent effect, feeding behaviour, and growth regulation 3 days after treatment (DAT).

[7] = test system: Myzus persicae (green peach aphid); assay: Example B7: Myzus persicae systemic/feeding activity, curative, mixed population (pea seedlings); conditions: 144 h, roots of infested pea seedlings in test solution, 6 days after introduction, read-out: activity (mortality, special effects on the plant)
From the text: Example B7: Activity Against Myzus persicae (Green Peach Aphid)
(Systemic/Feeding Activity, Curative), Mixed Population
Roots of pea seedlings, infested with an aphid population of mixed ages, were placed directly in the test solutions. 6 days after introduction, samples were checked for mortality and special effects on the plant.

[8] = test system: Tetranychus urticae (two-spotted spider mite); assay: Example B12: Tetranychus urticae mixed population on bean leaf discs; conditions: foliar, 192 h, mixed population (mobile stages) on sprayed bean leaf discs, 8 days after infestation
Procedure: Example B12: Activity Against Tetranychus urticae (Two-Spotted Spider Mite)
Bean leaf discs on agar in 24-well microtiter plates were sprayed with aqueous test solutions prepared from 10′000 ppm DMSO stock solutions. After drying the leaf discs were infested with a mite population of mixed ages. The samples were assessed for mortality on mixed population (mobile stages) 8 days after infestation.

[9] = test system: Spodoptera littoralis (Egyptian cotton leaf worm); assay: Example B2: Spodoptera littoralis systemic activity (lettuce on agar); conditions: 120 h, systemic via lettuce roots, 5 days after infestation, read-out: activity (mortality, repellent effect, feeding behavior, growth regulation)
From the text: Example B2: Activity Against Spodoptera littoralis (Egyptian Cotton Leaf Worm)
Test compounds were applied by pipette into 24 well plates and mixed with agar. Lettuce seeds were placed on the agar and the multi well plate is closed by another plate which contains also agar. After 7 days the roots have absorbed the compound and the lettuce has grown into the lid plate. The lettuce leaves were now cut off into the lid plate. Spodoptera eggs were pipetted through a plastic stencil on a humid gel blotting paper and the plate closed with it. The samples are checked for mortality, repellent effect, feeding behavior, and growth regulation 5 days after infestation.

[10] = test system: Euschistus heros (neotropical brown stink bug); assay: Example B10: Euschistus heros N-2 nymphs on soybean leaf; conditions: 120 h, N-2 nymphs on sprayed soybean leaf, 5 days after infestation
Procedure: Example B10: Activity Against Euschistus heros (Neotropical Brown Stink Bug)
Soybean leaf on agar in 24-well microtiter plates were sprayed with aqueous test solutions prepared from 10′000 ppm DMSO stock solutions. After drying the leaf were infested with N-2 nymphs. The samples were assessed for mortality 5 days after infestation.

[11] = test system: Frankliniella occidentalis (western flower thrips); assay: Example B11: Frankliniella occidentalis mixed population, feeding/contact, preventative; conditions: foliar, 168 h, mixed population on sprayed sunflower leaf discs, 7 DAT, read-out: activity (mortality, special effects)
Procedure: Example B11: Activity Against Frankliniella occidentalis (Western Flower Thrips)
(Mixed Population, Feeding/Contact, Preventative)
as §2, with “are” for “were”, “a Frankliniella” for “an aphid”, “7” for “6”

[12] = test system: Myzus persicae (green peach aphid); assay: Example B6: Myzus persicae feeding activity sachet test, mixed population; conditions: 120 h, sachet test in sucrose solution, 5 days after infestation
From the text: Example B6: Activity Against Myzus persicae (Green Peach Aphid)
(Feeding Activity Sachet Test), Mixed Population
Test compounds were applied by pipette into 24 well plates and mixed with Sucrose solution. The plates were closed with a stretched Parafilm. A plastic stencil with 24 holes is placed onto the plate and infested pea seedlings were placed directly on the Parafilm. The infested plate is closed with a gel blotting paper and another plastic stencil and then turned upside down. 5 days after infestation the samples were checked on mortality. Application rate: 12.5 ppm.

Row | Compound | mortality at 400 ppm [1] [%] | mortality at 400 ppm [2] [%] | mortality at 400 ppm [3] [%] | mortality at 400 ppm [4] [%] | mortality at 400 ppm [5] [%] | mortality at 400 ppm [6] [%] | mortality at 24 ppm [7] [%] | mortality at 400 ppm [8] [%] | mortality at 12.5 ppm [9] [%] | mortality at 400 ppm [10] [%] | mortality at 400 ppm [11] [%] | mortality at 12.5 ppm [12] [%]
1 | CCSc1cc(C(F)(F)F)cnc1-c1nnc(-c2cc(C(F)(F)F)ccn2)n1C [Compound P1, 3-ethylsulfanyl-2-[4-methyl-5-[4-(trifluoromethyl)-2-pyridyl]-1,2,4-triazol-3-yl]-5-(trifluoromethyl)pyridine] | > 80 | > 80 | > 80 | > 80 | > 80 | > 80 |  |  |  |  |  | 
2 | CCS(=O)(=O)c1cc(C(F)(F)F)cnc1-c1nnc(-c2ccc(C(F)(F)F)nc2)n1C [Compound P6] |  |  |  |  |  |  | ≥ 80 | ≥ 80 |  |  |  | 
3 | CCS(=O)(=O)c1cc(C(F)(F)F)cnc1-c1nnc(-c2ccccc2)n1C [Compound P11] |  | > 80 |  |  |  |  |  | ≥ 80 |  |  |  | 
4 | CCn1c(-c2cc(C(F)(F)F)ccn2)nnc1-c1ncc(C(F)(F)F)cc1S(=O)(=O)CC [Compound P65] |  | > 80 | > 80 |  |  | > 80 |  |  | ≥ 80 |  |  | 
5 | CCS(=O)(=O)c1cc(C(F)(F)F)cnc1-c1nnc(-c2ccc(Cl)c(C(F)(F)F)c2)n1C [Compound P48] | > 80 | > 80 |  | > 80 |  | > 80 |  |  |  | > 80 |  | 
6 | CCS(=O)(=O)c1cc(C(F)(F)F)cnc1-c1nnc(-c2cc(F)cc(F)c2)n1C [Compound P29] |  |  |  |  | > 80 |  |  | ≥ 80 |  |  |  | 
7 | CCSc1cc(OC(F)F)cnc1-c1nnc(-c2ccc(C(F)(F)F)nc2)n1C [Compound P57] |  |  |  |  |  |  |  | ≥ 80 |  |  |  | 
8 | CCS(=O)(=O)c1cc(C(F)(F)F)cnc1-c1nnc(-c2cccnc2)n1C [Compound P42] |  |  |  |  |  |  |  |  |  |  | > 80 | 
9 | CCS(=O)(=O)c1cccnc1-c1nnc(-c2cc(C(F)(F)F)ccn2)n1C [Compound P69] | > 80 | > 80 |  | > 80 | > 80 | > 80 | ≥ 80 |  |  | > 80 |  | 
10 | CCS(=O)(=O)c1cc(C(F)(F)F)ccc1-c1nnc(-c2cc(C(F)(F)F)ccn2)n1C [Compound P60] | > 80 | > 80 | > 80 | > 80 | > 80 | > 80 | ≥ 80 |  | ≥ 80 |  |  | 
11 | CCS(=O)(=O)c1cc(C(F)(F)F)cnc1-c1nnc(-c2cnc(C(F)(F)F)nc2)n1C [Compound P62] |  | > 80 |  | > 80 | > 80 | > 80 |  |  |  | > 80 |  | 
12 | CCS(=O)(=O)c1cc(C(F)(F)F)cnc1-c1nnc(-c2cc(C(F)(F)F)ccn2)n1C [Compound P2, 3-ethylsulfonyl-2-[4-methyl-5-[4-(trifluoromethyl)-2-pyridyl]-1,2,4-triazol-3-yl]-5-(trifluoromethyl)pyridine] | > 80 | > 80 | > 80 | > 80 | > 80 | > 80 | ≥ 80 |  | ≥ 80 |  |  | ≥ 80
13 | CCSc1cc(C(F)(F)F)ccc1-c1nnc(-c2cc(C(F)(F)F)ccn2)n1C [Compound P59] | > 80 | > 80 | > 80 | > 80 | > 80 | > 80 |  |  |  |  |  | 
